Assay results published in ChEMBL document CHEMBL5344474, “Molecular editing of NSC-666719 enabling discovery of benzodithiazinedioxide-guanidines as anticancer agents” (RSC Med Chem, 2024).

Legend:
MCF7 [1] = assay: Antiproliferative activity against human MCF7 cells incubated for 72 hrs by MTT assay; conditions: MCF7, 72 h
MDA-MB-231 = assay: Antiproliferative activity against human MDA-MB-231 cells incubated for 72 hrs by MTT assay; conditions: MDA-MB-231, 72 h
HCT-116 = assay: Antiproliferative activity against human HCT-116 cells incubated for 72 hrs by MTT assay; conditions: HCT-116, 72 h
SCC-9 = assay: Antiproliferative activity against human SCC-9 cells incubated for 72 hrs by MTT assay; conditions: SCC-9, 72 h
[2] = Cytotoxicity against HEK293 cells incubated for 72 hrs by MTT assay; conditions: human
[3] = Selectivity index, ratio of IC50 for HEK293 cells to IC50 for human MCF7 cells; conditions: HEK293 cells versus MCF7 cells
[4] = Selectivity index, ratio of IC50 for HEK293 cells to IC50 for human MDA-MB-231 cells; conditions: HEK293 cells versus MDA-MB-231 cells
[5] = Selectivity index, ratio of IC50 for HEK293 cells to IC50 for human HCT-116 cells; conditions: HEK293 cells versus HCT-116 cells
MCF7 [6] = assay: cells; conditions: Homo sapiens, MCF7, 48 h, read-out: Activity
Description: Induction of apoptosis in human MCF7 cells assessed as viable cells at 0.5 uM incubated for 48 hrs by Annexin-V/FITC staining based flow cytometry analysis (Rvb = 99.3 +/- 0.12 %)

MCF7 [7] = assay: cells; conditions: Homo sapiens, MCF7, 48 h, read-out: Activity; remark: listed apart in the source
Description: Induction of apoptosis in human MCF7 cells assessed as viable cells at 2 uM incubated for 48 hrs by Annexin-V/FITC staining based flow cytometry analysis (Rvb = 99.3 +/- 0.12 %)

MCF7 [8] = assay: cells; conditions: Homo sapiens, MCF7, 48 h, read-out: Activity; remark: listed apart in the source
Description: Induction of apoptosis in human MCF7 cells assessed as viable cells at 0.8 uM incubated for 48 hrs by Annexin-V/FITC staining based flow cytometry analysis (Rvb = 99.3 +/- 0.12 %)

Compound: Cc1cc2c(cc1Cl)SC(/N=C(/N)Nc1ccnc3cc(Cl)ccc13)=NS2(=O)=O
- IC50 (MCF7 [1]): 800 nM
- IC50 (MDA-MB-231): 2100 nM
- IC50 (HCT-116): 2800 nM
- IC50 (SCC-9): 1000 nM
- IC50 at 72 h [2]: 65000 nM
- selectivity ratio [3]: > 65
- selectivity ratio [4]: > 65
- selectivity ratio [5]: > 65
- viability at 0.5 µM (MCF7 [6]): 64.9%
- viability at 2 µM (MCF7 [7]): 14.8%
- viability at 0.8 µM (MCF7 [8]): 27.4%
